Test results reported in PubChem BioAssay AID624369 (Broad Institute, 2012).
Results filed as inconclusive are left out. Active and inactive are the calls of the source.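 Rule for the calls: active = fitted curve crosses a set inhibition level at a dose up to twice the top tested dose; inconclusive = flat curve with moderate inhibition, or an unreliable curve fit; inactive = the rest, including signal rising instead of falling.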

Test: inhibitors of TNFa-stimulated NF-kB luciferase reporter, dose response, selectivity assay for EBV LMP1 NF-kB inhibitor project, HEK293 LMP1 reporter cells, dry powder, set 2 (AID 624369)
Conditions: HEK293 LMP1 TES2 NF-kB luciferase reporter, 16 h; at 35 µM (top of the series)

| SMILES | activity change, negative = inhibition |
| --- | --- |
| C[C@@H]1CN([C@@H](C)CO)C(=O)Cc2cc(NC(=O)Cc3ccccc3)ccc2O[C@H]1CN(C)Cc1ccc(C(F)(F)F)cc1 | 29.3% (inactive) |
| COc1cccc(S(=O)(=O)N(C)C[C@@H]2Oc3cc(C4=CCCCC4)ccc3S(=O)(=O)N([C@@H](C)CO)C[C@@H]2C)c1 | 17.7% (inactive) |
| C[C@H](CO)N1C[C@H](C)[C@@H](CN(C)S(=O)(=O)c2cccc(F)c2)Oc2ncc(C#CC3CCCCC3)cc2C1=O | 1.93% (inactive) |
| C[C@H](NC(=O)C[C@@H]1C=C[C@@H](NC(=O)Cc2ccccn2)[C@@H](CO)O1)c1ccccc1 | -1.02% (inactive) |
| C[C@H]1CN([C@@H](C)CO)C(=O)Cc2cc(NC(=O)Cc3ccccc3)ccc2O[C@@H]1CN(C)Cc1ccc(C(F)(F)F)cc1 | 13.6% (inactive) |
| C[C@@H](NC(=O)C[C@H]1C=C[C@H](NC(=O)Cc2ccccn2)[C@@H](CO)O1)c1ccccc1 | 0.235% (inactive) |
| C[C@@H]1CN([C@@H](C)CO)C(=O)c2c(c3ccccc3n2C)-c2ccccc2CO[C@@H]1CN(C)C(=O)Nc1ccc(F)cc1 | 3.56% (inactive) |
| O=C(Cc1ccccn1)NCC[C@@H]1CC[C@H](NC(=O)Nc2ccc(Cl)cc2)[C@@H](CO)O1 | 0.116% (inactive) |
| C[C@@H](NC(=O)C[C@H]1C=C[C@H](NC(=O)Cc2ccccn2)[C@H](CO)O1)c1ccccc1 | 3.96% (inactive) |
| Cc1noc(C)c1S(=O)(=O)Nc1ccc2c(c1)C(=O)N([C@@H](C)CO)C[C@H](C)[C@@H](CN(C)Cc1ccc(C(F)(F)F)cc1)OCCCC[C@@H](C)O2 | -1.88% (inactive) |
| COc1cccc(S(=O)(=O)N(C)C[C@H]2Oc3cc(C4=CCCCC4)ccc3S(=O)(=O)N([C@@H](C)CO)C[C@@H]2C)c1 | 12% (inactive) |
| Cc1noc(C)c1S(=O)(=O)Nc1ccc2c(c1)C(=O)N([C@@H](C)CO)C[C@@H](C)[C@@H](CN(C)Cc1ccc(C(F)(F)F)cc1)OCCCC[C@@H](C)O2 | 30.6% (inactive) |
| COc1ccc(NC(=O)N(C)C[C@@H]2Oc3cc(C#CCC(C)C)ccc3S(=O)(=O)N([C@@H](C)CO)C[C@@H]2C)cc1 | 14.6% (inactive) |
| O=C(Cc1ccccn1)NCC[C@H]1CC[C@H](NC(=O)Nc2ccc(Cl)cc2)[C@@H](CO)O1 | -0.241% (inactive) |
| C[C@H](NC(=O)C[C@H]1C=C[C@@H](NC(=O)Cc2ccccn2)[C@@H](CO)O1)c1ccccc1 | -2.31% (inactive) |
| C[C@@H]1CN([C@H](C)CO)C(=O)Cc2cc(NC(=O)Cc3ccccc3)ccc2O[C@H]1CN(C)Cc1ccc(C(F)(F)F)cc1 | 2.66% (inactive) |
| O=C(C[C@H]1C[C@@H]2c3cc(NS(=O)(=O)c4ccc(F)cc4)ccc3O[C@@H]2[C@H](CO)O1)NC1CCCCC1 | -5.14% (inactive) |
| C[C@H]1CN([C@@H](C)CO)C(=O)c2c(c3ccccc3n2C)-c2ccccc2CO[C@@H]1CN(C)C(=O)Nc1ccc(F)cc1 | 1.28% (inactive) |
| C[C@H](NC(=O)C[C@H]1C=C[C@H](NC(=O)Cc2ccccn2)[C@H](CO)O1)c1ccccc1 | 3.06% (inactive) |
| C[C@H](NC(=O)C[C@H]1C[C@@H]2c3cc(NC(=O)c4cccnc4)ccc3O[C@@H]2[C@@H](CO)O1)c1ccccc1 | -8.72% (inactive) |
| COc1cccc(C#Cc2ccc([C@@H]3[C@H](C#N)N(C(=O)c4ccccn4)[C@H]3CO)cc2)c1 | -1.9% (inactive) |
| COC(=O)C[C@H]1C[C@H]2c3cc(NC(=O)CN(C)C)ccc3O[C@H]2[C@H](CO)O1 | 4.38% (inactive) |
| O=C(Cc1ccccn1)NCC[C@H]1CC[C@@H](NC(=O)Nc2ccc(Cl)cc2)[C@@H](CO)O1 | -6.43% (inactive) |
| C[C@@H](NC(=O)C[C@@H]1C=C[C@H](NC(=O)Cc2ccccn2)[C@@H](CO)O1)c1ccccc1 | 4.33% (inactive) |
